# Experimental data as given in BindingDB's records for patent US20240116922 (Biogen Ma, 2024).
# pIC50: −log10 of the molar value.
# Target: T1, Interleukin-1 receptor-associated kinase 4 (Homo sapiens, UniProt Q9NWZ3)
# T1 sequence (Q9NWZ3 whole entry): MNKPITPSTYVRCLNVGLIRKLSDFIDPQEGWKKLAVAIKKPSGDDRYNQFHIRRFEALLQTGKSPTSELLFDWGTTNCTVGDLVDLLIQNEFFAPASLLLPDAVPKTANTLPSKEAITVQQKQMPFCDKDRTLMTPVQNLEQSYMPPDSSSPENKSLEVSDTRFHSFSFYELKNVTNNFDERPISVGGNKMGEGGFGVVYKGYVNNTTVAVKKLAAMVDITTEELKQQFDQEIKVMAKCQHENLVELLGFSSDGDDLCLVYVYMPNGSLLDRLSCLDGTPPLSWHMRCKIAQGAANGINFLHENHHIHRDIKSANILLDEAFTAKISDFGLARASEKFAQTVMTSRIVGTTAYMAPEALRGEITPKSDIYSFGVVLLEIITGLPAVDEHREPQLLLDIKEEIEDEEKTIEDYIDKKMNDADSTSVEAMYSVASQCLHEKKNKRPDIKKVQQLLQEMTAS
# Assay: Biochemical Assay
row,pIC50,SMILES
1,9.52,"CC[C@H](C)Oc1nc2nc(C34COC(C)(C3)C4)cn2cc1C(=O)Nc1cccn([C@@H]2C[C@@H]2F)c1=O (mixture of isomers) [US20240116922, Example 42]"
2,9.70,"CC[C@H](C)Oc1cc2nc(C34COC(C)(C3)C4)cn2cc1C(=O)Nc1cccn([C@@H]2C[C@@H]2F)c1=O (mixture of isomers) [US20240116922, Example 96]"

row,SMILES,pIC50
1,"CC(C)Oc1cc2nc(C34COC(C)(C3)C4)cn2cc1C(=O)Nc1ccnn(C2CC2)c1=O [US20240116922, Example 76]",8.80
